According to publication PMC3914206:
Where “and” joins values, the source holds several entries; their conditions need not be identical. Identical values can stand only once.

How the values were obtained:
endogenous LRRK2 = format: cell-based; conditions: EBV immortalized human lymphoblastoid cells, 90 min
[1] = Pharmacokinetics after intravenous and oral delivery in mice; format: in vivo
Procedure: The pharmacokinetic properties of 26 were also evaluated following intravenous and oral delivery in mice.

[2] = biological target: T1, selected panels of kinases in HeLa and PC3 cell lysates (Homo sapiens, UniProt O75582); assay: KiNativ chemical proteomics profiling in HeLa and PC3 cell lysates; format: binding; conditions: 10 uM; proteome HEL; peptide DIk[…]; labeling site Lys2
T1 construct: endogenous in cells; host or cells: HeLa and PC3 cell lysates

[3] = biological target: T2, selected panels of kinases in HeLa and PC3 cell lysates (Homo sapiens, UniProt P23458); assay: as above; format: binding; conditions: 10 uM, proteome HEL; for % Inhibiton, JAK1 domain1: peptide […]kNLLLAR, labeling site Other
T2 construct: endogenous in cells; host or cells: HeLa and PC3 cell lysates

[4] = biological target: T3, selected panels of kinases in HeLa and PC3 cell lysates (Homo sapiens, UniProt O75716); assay: as above; format: binding; conditions: 10 uM, peptide DLk[…], labeling site Lys2
T3 construct: endogenous in cells; host or cells: HeLa and PC3 cell lysates

[5] = biological target: T4, selected panels of kinases in HeLa and PC3 cell lysates (Homo sapiens, UniProt Q15759); assay: as above; format: binding; conditions: 10 uM; proteome PC3; peptide QELNkTVWEVPQR; labeling site Other
T4 construct: endogenous in cells; host or cells: HeLa and PC3 cell lysates

wild-type LRRK2 = wild-type LRRK2 (Homo sapiens, UniProt Q5S007); assay: LRRK2 cellular assay, Ser910/Ser935 phosphorylation in stably transfected HEK293 cells; conditions: up to 3 μM, 90 min
Procedure: (§1) Our cellular assay for LRRK2 measures the ability of compounds to inhibit LRRK2-dependent phosphorylation of Ser910 and Ser935 in stably transformed HEK293 cells as described previously [[21,25]].
(§2) As there are no validated direct phosphorylation substrates of LRRK2, we monitored phosphorylation of Ser910 and Ser935, two residues whose phosphorylation is known to be dependent upon LRRK2 kinase activity [25]
(§3) Cell culture, treatments and cell lysis. HEK293 was cultured in DMEM (Dulbecco's Modified Eagle's medium) supplemented with 10% FBS (fetal bovine serum), 2 mM glutamine and 1× penicillin/streptomycin solution. […] Following treatment, cells were washed once with phosphate buffered saline (PBS) buffer and lysed with lysis buffer (50 mM Tris/HCl, pH 7.5, 1 mM EGTA, 1 mM EDTA, 1 mM sodium orthovanadate, 10 mM sodium β-glycerophosphate, 50 mM NaF, 5 mM sodium pyrophosphate, 0.27 M sucrose, 1 mM benzamidine, 2 mM phenylmethanesulphonylfluoride (PMSF) and 1% Triton X-100). When not used immediately, all lysate supernatants were snap-frozen in liquid nitrogen and stored at −80 °C until use. Protein concentrations were determined following centrifugation of the lysate at 16,000× g at 4 °C for 20 min using the Bradford method with BSA as the standard. Transient transfection of HEK 293 cells was performed using the polyethyleneimine (PEI) method [35]. […]

ERK5 = ERK5 (Homo sapiens, UniProt Q13164); assay: ERK5 autophosphorylation assay (EGF-stimulated, mobility shift immunoblot); format: cell-based; parameters: endogenous in cells; host or cells: HeLa; conditions: inhibition of EGF-stimulated autophosphorylation of ERK5 in HeLa cells; read-out: Cellular EC50 (ERK5)
From the text: Proteins from total cell lysates were resolved by 6% sodium dodecyl sulfate (SDS)-poly-acrylamide gel electrophoresis (PAGE), transferred to nitrocellulose membrane, blocked in 5% nonfat milk, and blotted with anti-ERK5 antibody.

LRRK2[A2016T] = LRRK2[A2016T] (Homo sapiens, UniProt Q5S007, A2016T); assay: LRRK2 cellular assay, Ser910/Ser935 phosphorylation in stably transfected HEK293 cells; conditions: drug-resistant mutant, up to 3 μM
Procedure: as §1, §2, §3

[6] = peptide IGDFGLTk[…], labeling site Activation Loop
[7] = peptide […]k[…], labeling site Lys1

T3 sequence (O75716 whole entry): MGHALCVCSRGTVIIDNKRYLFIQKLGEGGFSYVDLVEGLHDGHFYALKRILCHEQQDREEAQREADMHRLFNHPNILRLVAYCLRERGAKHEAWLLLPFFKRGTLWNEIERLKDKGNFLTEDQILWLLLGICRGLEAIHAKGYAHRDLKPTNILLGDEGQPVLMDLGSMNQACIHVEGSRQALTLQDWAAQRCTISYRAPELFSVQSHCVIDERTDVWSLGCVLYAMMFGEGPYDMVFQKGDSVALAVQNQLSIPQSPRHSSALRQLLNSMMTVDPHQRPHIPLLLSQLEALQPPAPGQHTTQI
T2 sequence (P23458 whole entry, the tested form may be a part): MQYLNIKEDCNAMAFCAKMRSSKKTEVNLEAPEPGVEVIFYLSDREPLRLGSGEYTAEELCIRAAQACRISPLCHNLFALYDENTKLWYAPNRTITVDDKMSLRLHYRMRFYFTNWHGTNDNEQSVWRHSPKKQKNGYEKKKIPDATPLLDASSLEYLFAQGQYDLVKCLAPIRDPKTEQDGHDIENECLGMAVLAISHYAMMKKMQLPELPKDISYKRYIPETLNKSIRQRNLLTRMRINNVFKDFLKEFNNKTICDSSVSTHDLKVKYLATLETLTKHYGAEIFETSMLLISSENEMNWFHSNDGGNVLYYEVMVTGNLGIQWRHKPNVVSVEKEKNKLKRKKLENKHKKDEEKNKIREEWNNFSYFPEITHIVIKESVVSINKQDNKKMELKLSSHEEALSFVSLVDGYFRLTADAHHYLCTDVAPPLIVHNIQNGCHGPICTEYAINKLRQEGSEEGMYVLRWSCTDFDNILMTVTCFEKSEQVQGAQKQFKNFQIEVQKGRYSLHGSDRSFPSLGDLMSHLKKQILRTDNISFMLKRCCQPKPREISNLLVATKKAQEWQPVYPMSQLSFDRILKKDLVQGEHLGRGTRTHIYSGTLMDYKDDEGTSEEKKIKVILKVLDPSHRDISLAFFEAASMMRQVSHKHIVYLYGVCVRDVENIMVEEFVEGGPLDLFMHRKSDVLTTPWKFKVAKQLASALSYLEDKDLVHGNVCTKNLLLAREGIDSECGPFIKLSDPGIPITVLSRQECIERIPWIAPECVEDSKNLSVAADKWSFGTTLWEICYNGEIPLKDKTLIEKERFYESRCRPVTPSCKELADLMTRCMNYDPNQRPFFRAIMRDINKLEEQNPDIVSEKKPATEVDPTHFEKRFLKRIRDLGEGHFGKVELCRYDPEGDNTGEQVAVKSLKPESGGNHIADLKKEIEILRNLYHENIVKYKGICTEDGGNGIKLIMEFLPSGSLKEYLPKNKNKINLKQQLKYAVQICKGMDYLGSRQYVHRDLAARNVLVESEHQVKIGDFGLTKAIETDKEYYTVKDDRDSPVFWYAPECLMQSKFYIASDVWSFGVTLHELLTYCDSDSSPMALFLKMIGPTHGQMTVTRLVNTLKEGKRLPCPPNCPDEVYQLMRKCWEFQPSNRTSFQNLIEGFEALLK
Chain of ERK5 (Q13164 whole entry): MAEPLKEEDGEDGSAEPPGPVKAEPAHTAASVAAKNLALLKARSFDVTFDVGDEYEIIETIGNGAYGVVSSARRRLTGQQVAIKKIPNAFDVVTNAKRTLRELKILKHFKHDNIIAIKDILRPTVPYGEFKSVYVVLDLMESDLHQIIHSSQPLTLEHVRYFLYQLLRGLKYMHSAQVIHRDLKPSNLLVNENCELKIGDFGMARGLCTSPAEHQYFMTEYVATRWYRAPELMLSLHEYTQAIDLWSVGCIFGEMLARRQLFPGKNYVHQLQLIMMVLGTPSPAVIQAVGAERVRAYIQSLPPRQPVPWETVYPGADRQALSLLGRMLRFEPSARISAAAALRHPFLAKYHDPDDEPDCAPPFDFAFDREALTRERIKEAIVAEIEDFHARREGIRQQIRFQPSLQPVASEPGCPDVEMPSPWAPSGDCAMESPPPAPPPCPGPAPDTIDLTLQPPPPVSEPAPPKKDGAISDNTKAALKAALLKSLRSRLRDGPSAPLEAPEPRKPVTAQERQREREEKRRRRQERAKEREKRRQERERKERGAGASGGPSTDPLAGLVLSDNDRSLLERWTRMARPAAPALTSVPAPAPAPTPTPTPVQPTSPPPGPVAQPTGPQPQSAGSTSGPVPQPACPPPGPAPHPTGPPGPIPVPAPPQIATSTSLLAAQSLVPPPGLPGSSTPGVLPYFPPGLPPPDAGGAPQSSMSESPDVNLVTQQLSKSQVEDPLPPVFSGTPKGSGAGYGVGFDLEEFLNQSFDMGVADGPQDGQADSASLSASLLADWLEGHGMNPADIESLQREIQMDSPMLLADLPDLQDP
T4 sequence (Q15759 whole entry): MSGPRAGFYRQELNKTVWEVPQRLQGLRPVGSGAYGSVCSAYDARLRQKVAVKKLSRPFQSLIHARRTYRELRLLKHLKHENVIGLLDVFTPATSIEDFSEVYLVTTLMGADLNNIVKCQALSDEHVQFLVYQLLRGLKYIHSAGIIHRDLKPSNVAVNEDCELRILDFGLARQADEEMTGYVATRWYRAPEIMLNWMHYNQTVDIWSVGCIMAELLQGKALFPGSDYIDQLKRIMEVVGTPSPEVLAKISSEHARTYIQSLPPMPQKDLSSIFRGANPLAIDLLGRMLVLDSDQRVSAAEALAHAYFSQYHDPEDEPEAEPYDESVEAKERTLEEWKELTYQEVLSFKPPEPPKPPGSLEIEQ
T1 sequence (O75582 whole entry): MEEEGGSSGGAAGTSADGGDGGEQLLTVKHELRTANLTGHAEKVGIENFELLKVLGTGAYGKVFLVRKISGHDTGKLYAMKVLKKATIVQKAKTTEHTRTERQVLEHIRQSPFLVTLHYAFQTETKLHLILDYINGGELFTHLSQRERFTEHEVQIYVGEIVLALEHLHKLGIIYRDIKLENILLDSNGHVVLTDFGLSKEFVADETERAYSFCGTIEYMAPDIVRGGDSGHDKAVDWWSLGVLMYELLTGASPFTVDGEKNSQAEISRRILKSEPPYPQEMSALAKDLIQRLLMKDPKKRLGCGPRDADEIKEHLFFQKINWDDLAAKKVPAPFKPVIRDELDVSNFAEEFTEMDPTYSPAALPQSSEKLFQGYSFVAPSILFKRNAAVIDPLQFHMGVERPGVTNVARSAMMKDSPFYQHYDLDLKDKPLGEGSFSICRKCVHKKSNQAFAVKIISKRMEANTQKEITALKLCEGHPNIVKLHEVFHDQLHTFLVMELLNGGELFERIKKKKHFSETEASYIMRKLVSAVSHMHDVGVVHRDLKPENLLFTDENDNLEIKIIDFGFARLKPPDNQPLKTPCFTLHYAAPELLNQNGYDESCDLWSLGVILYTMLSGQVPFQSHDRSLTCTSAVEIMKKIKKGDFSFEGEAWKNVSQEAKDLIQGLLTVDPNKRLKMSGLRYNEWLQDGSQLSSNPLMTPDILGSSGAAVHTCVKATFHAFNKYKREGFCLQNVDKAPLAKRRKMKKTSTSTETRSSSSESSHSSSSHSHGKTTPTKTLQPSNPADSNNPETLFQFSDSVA

SMILES | effect on phosphorylation of endogenous LRRK2 at Ser910 and Ser935 (endogenous LRRK2) | AUC0−∞ ([1]; IV, 1 mg/kg) [ng·h/mL] | CL ([1]; IV, 1 mg/kg) [mL/min/kg] | Cmax ([1]; IV, 1 mg/kg) [ng/mL] | T1/2 ([1]; IV, 1 mg/kg) [h] | Vss ([1]; IV, 1 mg/kg) [L/kg] | AUC0−∞ ([1]; PO, 10 mg/kg) | Cmax ([1]; PO, 10 mg/kg) [ng/mL] | F (oral bioavailability) ([1]; PO, 10 mg/kg) [%] | Tmax ([1]; PO, 10 mg/kg) [H] | % Inhibiton, MSK1 domain1 [2] [%] | % Inhibiton, JAK1 domain2 [3, 6] [%] | % Inhibiton, JAK1 domain1 [3] [%] | % Inhibiton, JAK1 domain2 [3, 7] [%] | % Inhibiton, MPSK1 ([4]; proteome HEL) [%] | % Inhibiton, MPSK1 ([4]; proteome PC3) [%] | % Inhibiton, p38b [5] [%] | inhibitory effect against LRRK2 in cells (Ser910/Ser935 phosphorylation) (wild-type LRRK2) | EC50 (ERK5) [nM] | effect on phosphorylation of Ser910 and Ser935 (LRRK2[A2016T])
CCOc1cc(C(=O)N2CCC(N3CCN(C)CC3)CC2)ccc1Nc1ncc2c(n1)N(C1CCCC1)c1ccccc1C(=O)N2C [Compound 26] | did not show inhibitory effects | 1743.83 | 8.64 | 439 | 8.2 | 4.67 | 15745 ng·h/mL and 15745.48 ng·h/mL | 1142.77 | 90 | 4.0 | ~70.5 | 6.3 | 24.2 | 32.1 | -9.4 | 5.8 | 14.6 | did not show any inhibitory effect |  | 
COc1cc(C(=O)N2CCC(N3CCN(C)CC3)CC2)ccc1Nc1ncc2c(n1)N(C1CCCC1)c1ccccc1C(=O)N2C [Compound 25, 11-cyclopentyl-2-((2-methoxy-4-(4-(4-methylpiperazin-1-yl)piperidine-1-carbonyl)phenyl)amino)-5-methyl-5H-benzo[e]pyrimido[5,4-b][1,4]diazepin-6(11H)-one] |  |  |  |  |  |  |  |  |  |  | 26.7 | 5.1 | 3.2 | 4.8 | 29.5 | -4.3 | 14.5 |  | 80 ± 20 | 
COc1cc(C(=O)N2CCC(N3CCN(C)CC3)CC2)ccc1Nc1ncc2c(n1)N1CCc3cccc(c31)C(=O)N2C [Compound 24] |  |  |  |  |  |  |  |  |  |  |  |  |  |  |  |  |  |  | 260 ± 40 | no effect
